target: T1, LovD acyltransferase (Aspergillus terreus, UniProt Q9Y7D1); experiment: LovD acyltransferase mediated acylation: relative activity of thioester acyl donors; assay type: biochemical; settings: thioester as acyl donor
T1 sequence (Q9Y7D1 1-413): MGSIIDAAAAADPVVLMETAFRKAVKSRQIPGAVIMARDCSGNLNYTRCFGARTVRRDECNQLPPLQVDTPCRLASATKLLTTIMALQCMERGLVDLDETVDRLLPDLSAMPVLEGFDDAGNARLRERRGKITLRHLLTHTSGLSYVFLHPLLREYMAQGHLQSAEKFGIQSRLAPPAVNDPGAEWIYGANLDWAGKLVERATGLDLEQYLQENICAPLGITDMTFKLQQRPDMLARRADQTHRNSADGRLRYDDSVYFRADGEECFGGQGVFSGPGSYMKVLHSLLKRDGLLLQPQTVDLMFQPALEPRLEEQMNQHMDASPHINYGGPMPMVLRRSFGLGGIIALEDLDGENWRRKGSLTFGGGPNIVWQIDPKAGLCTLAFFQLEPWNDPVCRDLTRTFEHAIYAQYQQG
Excerpt: Any one or more compounds shown in Table 1 may be used as thioesters in the methods of the present disclosure. Compound IV is one preferred thioester as its relative activity is high.

With `CCC(C)(C)C(=O)SCCC(=O)OC` [Compound IV] as the compound, how does the “Relative activity at 24 h (%)” value read?
The value was “++++ (++++ = 75-100)”.

For `CCCCSC(=O)C(C)(C)CC` [IX], which “Relative activity at 24 h (%)” value is on record?
Its value is “+++ (+++ = 10-75)”.

For `CCC(C)(C)C(=O)SC(C)C` [VIII], which “Relative activity at 24 h (%)” value is on record?
The value was “+ (+ = 0-1)”.

`CCSC(=O)C(C)(C)CC` [VII] was tested. Which “Relative activity at 24 h (%)” value did it give?
The value was “++ (++ = 1-10)”.

Which “Relative activity at 24 h (%)” value does the source give for `CCC(C)(C)C(=O)SC` [VI] here?
The value was “+ (+ = 0-1)”.

`CCC(C)(C)C(=O)SCC(=O)OC` [V] was tested. Which “Relative activity at 24 h (%)” value did it give?
The value was “++ (++ = 1-10)”.
